Here are results for seven compounds from ChEMBL document CHEMBL1144933, “Novel bioactive and stable neurotensin peptide analogues capable of delivering radiopharmaceuticals and molecular beacons to tumors” (J Med Chem, 2003).

*1 amine or outer side, *2 acyl side, *3 side chain or, on linkers, in order; H or OH if unused. Where a SMILES comes first, the peptide text is derived from it. [ ]: non-standard residue; d: D form. The star is where a group is joined. Abu(1-amidino-4-piperidyl) = N=C(N)N1CCC(CC[C@H](N)C(=O)O)CC1; Gly(1-amidinopiperidin-4-yl) = N=C(N)N1CCC([C@H](N)C(=O)O)CC1; Ala(1-amidino-4-piperidyl) = N=C(N)N1CCC(C[C@H](N)C(=O)O)CC1; FITC = O=C1OC2(c3ccc(O)cc3Oc3cc(O)ccc32)c2ccc(NC(=S)*)cc21; DTPA = O=C(O)CN(CCN(CC(=O)O)CC(=O)O)CCN(CC(=O)O)CC(=O)*; Phe(4-guanidino) = N=C(N)Nc1ccc(C[C@H](N)C(=O)O)cc1; Gly(piperidin-4-yl) = N[C@H](C(=O)O)C1CCNCC1; X1 = NCC1CCC(C[C@H](N[*:1])C(=O)[*:2])CC1; Tle = CC(C)(C)[C@H](N)C(=O)O

The target of one test is Neurotensin receptor type 1 (Homo sapiens, UniProt P30989). The test can be described thus: Binding affinity towards neurotensin receptor in membranes prepared from HT-29 cell line, relative to [111In]-labeled neurotensin peptide.
Chain of Neurotensin receptor type 1 (P30989 whole entry): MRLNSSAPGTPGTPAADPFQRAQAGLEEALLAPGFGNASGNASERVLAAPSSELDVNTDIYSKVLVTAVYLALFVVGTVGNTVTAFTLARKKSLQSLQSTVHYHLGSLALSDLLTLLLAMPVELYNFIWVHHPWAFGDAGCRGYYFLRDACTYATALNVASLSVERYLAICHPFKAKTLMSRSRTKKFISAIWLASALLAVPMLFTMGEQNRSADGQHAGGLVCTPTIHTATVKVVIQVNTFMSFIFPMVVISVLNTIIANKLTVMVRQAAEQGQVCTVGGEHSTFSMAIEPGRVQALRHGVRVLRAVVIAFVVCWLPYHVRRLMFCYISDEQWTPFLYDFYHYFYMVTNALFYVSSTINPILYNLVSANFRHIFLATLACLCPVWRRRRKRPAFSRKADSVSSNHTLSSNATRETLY
Conditions: not given
For the compound `CC(C)C[C@H](NC(=O)[C@@H](NC(=O)[C@H](Cc1ccc(O)cc1)NC(=O)[C@@H]1CCCN1C(=O)[C@H](CCCN=C(N)N)NC(=O)[C@@H](NC(=O)[C@@H]1CCCN1C(=O)[C@H](CC1CCC(CN)CC1)NC(=O)CN(CCN(CCN(CC(=O)O)CC(=O)O)CC(=O)O)CC(=O)O)C1CCN(C(=N)N)CC1)C(C)(C)C)C(=O)O` (stereo partly drawn) ({DTPA}-[X1]P[Gly(1-amidinopiperidin-4-yl)]RPY[Tle]L-OH), the IC50 came to 0.3 nM.
Same read-out and setting: the same measure for `CC(C)C[C@H](NC(=O)[C@@H](NC(=O)[C@H](Cc1ccc(O)cc1)NC(=O)[C@@H]1CCCN1C(=O)[C@H](CCCNC(=N)N)NC(=O)[C@H](CCC1CCN(C(=N)N)CC1)NC(=O)[C@@H]1CCCN1C(=O)[C@@H](CCCCN)NC(=O)CN(CCN(CCN(CC(=O)O)CC(=O)O)CC(=O)O)CC(=O)O)C(C)(C)C)C(=O)O` ({DTPA}-[dK]P[Abu(1-amidino-4-piperidyl)]RPY[Tle]L-OH): 6.3 nM; for `CC(C)C[C@H](NC(=O)[C@@H](NC(=O)[C@H](Cc1ccc(O)cc1)NC(=O)[C@@H]1CCCN1C(=O)[C@H](CCCNC(=N)N)NC(=O)[C@H](CC1CCN(C(=N)N)CC1)NC(=O)[C@@H]1CCCN1C(=O)[C@@H](CCCCN)NC(=O)CN(CCN(CCN(CC(=O)O)CC(=O)O)CC(=O)O)CC(=O)O)C(C)(C)C)C(=O)O` ({DTPA}-[dK]P[Ala(1-amidino-4-piperidyl)]RPY[Tle]L-OH): 2.5 nM.
Regarding `CC(C)C[C@H](NC(=O)[C@@H](NC(=O)[C@H](Cc1ccc(O)cc1)NC(=O)[C@@H]1CCCN1C(=O)[C@H](CCCN=C(N)N)NC(=O)[C@H](Cc1ccc(NC(=N)N)cc1)NC(=O)[C@@H]1CCCN1C(=O)[C@@H](CCCCN)NC(=O)CN(CCN(CCN(CC(=O)O)CC(=O)O)CC(=O)O)CC(=O)O)C(C)(C)C)C(=O)O` ({DTPA}-[dK]P[Phe(4-guanidino)]RPY[Tle]L-OH), the IC50 is 24.6 nM.
As to `CC[C@H](C)[C@H](NC(=O)[C@H](Cc1ccc(O)cc1)NC(=O)[C@@H]1CCCN1C(=O)[C@H](Cc1ccc(NC(=N)N)cc1)NC(=O)[C@H](Cc1ccc(NC(=N)N)cc1)NC(=O)[C@@H]1CCCN1C(=O)[C@@H](CCCCN)NC(=O)CN(CCN(CCN(CC(=O)O)CC(=O)O)CC(=O)O)CC(=O)O)C(=O)N[C@@H](CC(C)C)C(=O)O` ({DTPA}-[dK]P[Phe(4-guanidino)][Phe(4-guanidino)]PYIL-OH), the IC50 was found to be 22.1 nM.

Still in this test, the particulars now being: ht-29.
As to `CC(C)C[C@H](NC(=O)[C@@H](NC(=O)[C@H](Cc1ccc(O)cc1)NC(=O)[C@@H]1CCCN1C(=O)[C@H](CCCNC(=N)N)NC(=O)[C@@H](NC(=O)[C@@H]1CCCN1C(=O)[C@H](CC1CCN(C(=N)N)CC1)NC(=O)CN(CCN(CCN(CC(=O)O)CC(=O)O)CC(=O)O)CC(=O)O)C1CCN(C(=N)N)CC1)C(C)(C)C)C(=O)O` ({DTPA}-[Ala(1-amidino-4-piperidyl)]P[Gly(1-amidinopiperidin-4-yl)]RPY[Tle]L-OH), the IC50 was > 1000 nM.
With `CC(C)C[C@H](NC(=O)[C@@H](NC(=O)[C@H](Cc1ccc(O)cc1)NC(=O)[C@@H]1CCCN1C(=O)[C@H](CCCN=C(N)N)NC(=O)[C@@H](NC(=O)[C@@H]1CCCN1C(=O)[C@@H](NC(=S)Nc1ccc2c(c1)C(=O)OC21c2ccc(O)cc2Oc2cc(O)ccc21)C1CCNCC1)C1CCN(C(=N)N)CC1)C(C)(C)C)C(=O)O` ({FITC}-[Gly(piperidin-4-yl)]P[Gly(1-amidinopiperidin-4-yl)]RPY[Tle]L-OH), the IC50 was found to be 0.5 nM.

By IC50 is commonly meant the midpoint of a concentration-inhibition curve.
